Measurements from patent US20120220453A1, “PESTICIDAL COMPOSTIONS AND PROCESSES RELATED THERETO” (priority 2011, published 2012).

Assays:
Assay type in all cases: in vivo
[1] = test system: San Jose Scale (Quadraspidiotus perniciosus); test: Bioassay on San Jose Scale, foliar spray on cotton plants; conditions: Diaspidiotus perniciosus, 216 h; 200 ppm foliar spray on cotton plants, live nymphs counted 9 days after infestation, Abbott corrected % control; read-out: Scale @ 200 ppm, % Control (or Mortality) rating
Experimental: Certain molecules disclosed in this document were tested against Scale using procedures described in the following example. In the reporting of the results, the “Table 4: GPA, Scale and WF Rating Table” was used (See Table Section).
Cotton plants (Gossypium hirsutum) grown in 3-inch pots, with 1 small (4-5 cm) true leaves, were used as test substrate. The plants were infested with 200-400 scale crawlers 1-2 hours after chemical application. Four pots with individual plants were used for each treatment. Test compounds (2 mg) were dissolved in 1 mL of acetone solvent, forming stock solutions of 2000 ppm test compound. The stock solutions were diluted 10× with 0.025% Tween 20 in H2O (diluents) to obtain the solution at 200 ppm test compound. A hand-held aspirator-type sprayer was used for spraying a solution to both sides of cotton leaves until runoff. Reference plants (solvent check) were sprayed with the diluent only containing 10% by volume of acetone solvent. Treated plants were held in a holding room for three days at approximately 25° C. and ambient relative humidity (RH) prior to grading. Evaluation was conducted by counting the number of live 2-3 nymphal stage per plant under a microscope 9 days after infestation. Percent Control was measured by using Abbott's correction formula (W. S. Abbott, “A Method of Computing the Effectiveness of an Insecticide” J. Econ. Entomol. 18 (1925), pp. 265-267) as follows.
Corrected % Control=100*(X−Y)/X • where • X=No. of live nymphs on solvent check plants and • Y=No. of live nymphs on treated plants
(§1) The results are indicated in the table entitled “Table 5: BAW, CEW, GPA, Scale and WF Results” (See Table Section).

[2] = test system: Beet Armyworm (BAW) (Spodoptera exigua); test: Bioassay on Beet Armyworm (BAW), 128-well diet tray assay; conditions: 120 h, second instar larvae on treated artificial diet, five days, 25° C., read-out: BAW, % Control (or Mortality) rating
Experimental: Certain molecules disclosed in this document were tested against BAW and CEW using procedures described in the following examples. In the reporting of the results, the “Table 3: BAW & CEW Rating Table” was used (See Table Section).
Bioassays on BAW (Spodoptera exigua)
Bioassays on BAW were conducted using a 128-well diet tray assay. […] Trays were covered with a clear self-adhesive cover, and held at 25° C., 14:10 light-dark for five days. Percent mortality was recorded for the larvae in each well; activity in the eight wells was then averaged. The results are indicated in the table entitled “Table 5: BAW, CEW, GPA, Scale and WF Results” (See Table Section).

[3] = test system: Green Peach Aphid (GPA) (Myzus persicae); test: Bioassay on Green Peach Aphid (GPA), foliar spray on cabbage seedlings; conditions: 72 h, 200 ppm foliar spray on cabbage seedlings, graded after three days, Abbott corrected % control, read-out: GPA @ 200 ppm, % Control (or Mortality) rating
Experimental: Certain molecules disclosed in this document were tested against GPA using procedures described in the following example. In the reporting of the results, the “Table 4: GPA, Scale and WF Rating Table” was used (See Table Section).
Cabbage seedlings grown in 3-inch pots, with 2-3 small (3-5 cm) true leaves, were used as test substrate. The seedlings were infested with 20-50 GPA (wingless adult and nymph stages) one day prior to chemical application. Four pots with individual seedlings were used for each treatment. Test compounds (2 mg) were dissolved in 2 mL of acetone/methanol (1:1) solvent, forming stock solutions of 1000 ppm test compound. The stock solutions were diluted 5× with 0.025% Tween 20 in H2O to obtain the solution at 200 ppm test compound. A hand-held aspirator-type sprayer was used for spraying a solution to both sides of […] leaves until runoff. Reference plants (solvent check) were sprayed with the diluent only containing 20% by volume of acetone/methanol (1:1) solvent. Treated plants were held in a holding room for three days at approximately 25° C. and ambient relative humidity (RH) prior to grading. Evaluation was conducted by counting the number of live aphids per plant under a microscope. Percent Control was measured by using Abbott's correction formula (W. S. Abbott, “A Method of Computing the Effectiveness of an Insecticide” J. Econ. Entomol. 18 (1925), pp. 265-267) as follows.
Corrected % Control=100*(X−Y)/X • where • X=No. of live aphids on solvent check plants and • Y=No. of live aphids on treated plants
as §1

[4] = test system: Sweet Potato Whitefly (WF) (Bemisia tabaci); test: Bioassay on Sweet Potato Whitefly (WF), foliar spray on cotton plants; conditions: 216 h, 200 ppm foliar spray on cotton plants, graded after 9 days, Abbott corrected % control, read-out: WF @ 200 ppm, % Control (or Mortality) rating
Experimental: Certain molecules disclosed in this document were tested against WF using procedures described in the following example. In the reporting of the results, the “Table 4: GPA, Scale and WF Rating Table” was used (See Table Section).
Cotton plants (Gossypium hirsutum) grown in 3-inch pots, with 1 small (4-5 cm) true leaves, were used as test substrate. The plants were infested with 200-400 whitefly eggs 4-5 days prior to chemical application. Four pots with individual plants were used for each treatment. Test compounds (2 mg) were dissolved in 1 mL of acetone solvent, forming stock solutions of 2000 ppm test compound. The stock solutions were diluted 10× with 0.025% Tween 20 in H2O (diluents) to obtain the solution at 200 ppm test compound. A hand-held aspirator-type sprayer was used for spraying a solution to both sides of cotton leaves until runoff. Reference plants (solvent check) were sprayed with the diluent only containing 10% by volume of acetone solvent. Treated plants were held in a holding room for 9 days at approximately 25° C. and ambient relative humidity (RH) prior to grading. Evaluation was conducted by counting the number of live 3-4 nymphal stage per plant under a microscope. Percent Control was measured by using Abbott's correction formula (W. S. Abbott, “A Method of Computing the Effectiveness of an Insecticide” J. Econ. Entomol. 18 (1925), pp. 265-267) as follows.
Corrected % Control=100*(X−Y)/X • where • X=No. of live nymphs on solvent check plants and • Y=No. of live nymphs on treated plants.
as §1

Compound: CSc1nc(-c2cn(-c3cccnc3)nc2C)cc(C(F)(F)F)n1 [Compound 13]
- mortality at 200 ppm [1]: 0 to 80%
- mortality [2]: 50 to 100%
- mortality at 200 ppm [3]: 0 to 80%

Compound: CSc1cccc(-c2cn(-c3cccnc3)nc2C)c1 [Compound 17, 3-(3-methyl-4-(3-(methylthio)phenyl)-1H-pyrazol-1-yl)pyridine]
- mortality at 200 ppm [1]: 0 to 80%
- mortality at 200 ppm [4]: 0%
- mortality [2]: 50 to 100%
- mortality at 200 ppm [3]: 80 to 100%

Compound: COc1cccc(-c2cn(-c3cccnc3)nc2C)n1 [Compound 19]
- mortality at 200 ppm [1]: 80 to 100%
- mortality at 200 ppm [4]: 0 to 80%
- mortality [2]: 50 to 100%
- mortality at 200 ppm [3]: 80 to 100%

Compound: Cc1nn(-c2cccnc2)cc1-c1ccc(C(F)(F)F)cn1 [Compound 21]
- mortality at 200 ppm [1]: 80 to 100%
- mortality at 200 ppm [4]: 80 to 100%
- mortality [2]: 50 to 100%
- mortality at 200 ppm [3]: 80 to 100%

Compound: Cc1nn(-c2cccnc2)cc1-c1cc(C(F)(F)F)ccn1 [Compound 22]
- mortality at 200 ppm [1]: 80 to 100%
- mortality at 200 ppm [4]: 80 to 100%
- mortality [2]: 50 to 100%
- mortality at 200 ppm [3]: 80 to 100%

Compound: Cc1nn(-c2cccnc2)cc1-c1cccnc1 [Compound 23]
- mortality at 200 ppm [1]: 80 to 100%
- mortality at 200 ppm [4]: 0 to 80%
- mortality [2]: 50 to 100%
- mortality at 200 ppm [3]: 80 to 100%

Compound: COc1ccc(-c2cn(-c3cccnc3)nc2C)cn1 [Compound 25]
- mortality at 200 ppm [1]: 80 to 100%
- mortality at 200 ppm [4]: 0 to 80%
- mortality [2]: 50 to 100%
- mortality at 200 ppm [3]: 80 to 100%

Compound: Cc1ccc(-c2cn(-c3cccnc3)nc2C)cn1 [Compound 26]
- mortality at 200 ppm [1]: 80 to 100%
- mortality at 200 ppm [4]: 80 to 100%
- mortality [2]: 50 to 100%
- mortality at 200 ppm [3]: 80 to 100%

Compound: Cc1cncc(-c2cn(-c3cccnc3)nc2C)c1 [Compound 27]
- mortality at 200 ppm [1]: 0 to 80%
- mortality at 200 ppm [4]: 80 to 100%
- mortality [2]: 50 to 100%
- mortality at 200 ppm [3]: 80 to 100%

Compound: Cc1ncccc1-c1cn(-c2cccnc2)nc1C [Compound 28]
- mortality at 200 ppm [1]: 80 to 100%
- mortality at 200 ppm [4]: 0 to 80%
- mortality [2]: 50 to 100%
- mortality at 200 ppm [3]: 80 to 100%

Compound: Cc1nn(-c2cccnc2)cc1-c1ccc(C(F)(F)F)nc1 [Compound 29]
- mortality at 200 ppm [1]: 80 to 100%
- mortality at 200 ppm [4]: 80 to 100%
- mortality [2]: 50 to 100%
- mortality at 200 ppm [3]: 80 to 100%

Compound: Cc1cc(-c2cn(-c3cccnc3)nc2C)ccn1 [Compound 30]
- mortality at 200 ppm [1]: 0 to 80%
- mortality at 200 ppm [4]: 0 to 80%
- mortality [2]: 50 to 100%
- mortality at 200 ppm [3]: 80 to 100%
